Measured values taken from patent US7183306B2, “Pyrazole derivatives” (Astellas Pharma Inc., priority 2002, dated 2007).

Point of comparison: `CNC(=O)NCCc1ccc(-c2cc(C(F)(F)F)nn2-c2ccc(OC)nc2)cc1`, melting point 149 °C. Against it:
- COc1ccc(-n2nc(C(F)(F)F)cc2-c2ccc(CCOC(N)=O)cc2)cc1 — higher, 169 to 170 °C
- COc1ccc(-n2nc(C(=O)C(C)C)cc2-c2ccc(OCCNC(N)=O)cc2)cn1 — lower, 145 to 147 °C
- COc1ccc(-n2nc(S(C)(=O)=O)cc2-c2ccc(OCCNC(N)=O)cc2)cc1 — higher, 165 to 167 °C
- COc1ccc(-n2nc(SC)cc2-c2ccc(OCCNS(C)(=O)=O)cc2)cc1 — higher, 165 to 166 °C
- COc1ccc(-n2nc(Cl)cc2-c2ccc(CNS(C)(=O)=O)cc2)cc1 — lower, 68.3 to 69.3 °C
- COCOc1ccc(-c2cc([S+](C)[O-])nn2-c2ccc(OC)cc2)cc1 (centres unmarked) — lower, 136.9 to 137.3 °C
- COc1ccc(-n2nc(OCC(F)(F)F)cc2-c2ccc(OCCO)cc2)cn1 — lower, 91.2 to 91.3 °C
- COc1ccc(-n2nc(OCC(C)C)cc2-c2ccc(OCCNS(C)(=O)=O)cc2)cc1 — higher, 164.3 to 165.2 °C
- COc1ccc(-n2nc(C(=O)C(C)C)cc2-c2ccc(OCCO)cc2)cc1 — lower, 95 to 96 °C
- COc1ccc(-n2nc(C(C)C)cc2-c2ccc(OCCNS(C)(=O)=O)cc2)cn1 — lower, 96 to 97 °C
- COc1ccc(-n2nc(C3CC3)cc2-c2ccc(OCCNS(N)(=O)=O)cc2)cc1 — lower, 142 to 143 °C
- COc1ccc(-n2nc(C(=O)C(C)C)cc2-c2ccc(CNS(C)(=O)=O)cc2)cc1 — higher, 155.8 to 155.9 °C
- COc1ccc(-n2nc(C#N)cc2-c2ccc(OCCNS(C)(=O)=O)cc2)cc1 — not separable, 149 to 153 °C
- COc1ccc(-n2nc(C(=O)N3CCCCC3)cc2-c2ccc(OCCNC(N)=O)cc2)cc1 — higher, 152 to 152.2 °C
- COc1ccc(-n2nc(C(=O)C3CC3)cc2-c2ccc(OCCO)cc2)cn1 — lower, 104 to 106 °C
- COc1ccc(-n2nc(C(=O)N3CCCCC3)cc2-c2ccc(CNC(N)=O)cc2)cn1 — higher, 178.9 °C
- COc1ccc(-n2nc(NC(=O)N(C)C)cc2-c2ccc(OCCNS(C)(=O)=O)cc2)cc1 — higher, 166 to 167 °C
- CCN(C)C(=O)c1cc(-c2ccc(OCCNC(N)=O)cc2)n(-c2ccc(OC)cc2)n1 — lower, 108 to 113 °C
- CCOc1cc(-c2ccc(OCCNC(N)=O)cc2)n(-c2ccc(OC)nc2)n1 — lower, 133 to 138 °C
- COc1ccc(-n2nc(-c3nc(C)no3)cc2-c2ccc(OCCO)cc2)cc1 — higher, 158 to 159 °C
- COc1ccc(-n2nc(OCC(F)F)cc2-c2ccc(OCCNC(N)=O)cc2)cn1 — lower, 146.9 to 147.3 °C
- COc1ccc(-n2nc(OCC(F)(F)F)cc2-c2ccc(CNS(C)(=O)=O)cc2)cn1 — lower, 130 to 131 °C
- COc1ccc(-n2nc(C3CC3)cc2-c2ccc(CCO)cc2)cc1 — lower, 111 to 112 °C
- COc1ccc(-n2nc(C(F)(F)F)c(C)c2-c2ccc(OCCNC(N)=O)cc2)cc1 — higher, 150.5 to 151.1 °C
- CCOc1cc(-c2ccc(OCCNC(N)=O)cc2)n(-c2ccc(OC)cc2)n1 — higher, 154.2 to 154.4 °C
- COc1ccc(-n2nc(C3CC3)cc2-c2ccc(OCCN)cc2)cc1.Cl [277] — higher, 229 to 231 °C
- COc1ccc(-n2nc(C3CC3)cc2-c2ccc(OCCO)cc2)cc1 — lower, 142 to 144 °C
- COc1ccc(-n2nc(Cl)cc2-c2ccc(OCCNS(C)(=O)=O)cc2)cn1 — lower, 112 to 114 °C
- COc1ccc(-n2nc(C#N)cc2-c2ccc(OCCN)cc2)cc1.Cl — higher, 186 to 189 °C
- COc1ccc(-n2nc(C(=O)C(C)C)cc2-c2ccc(OCCNC(N)=O)cc2)cc1 — lower, 144 to 145 °C
- COc1ccc(-n2nc(C3CC3)cc2-c2ccc(OCCNS(C)(=O)=O)cc2)cn1 — lower, 95 to 97 °C
- COc1ccc(-n2nc(OCC(F)(F)F)cc2-c2ccc(OCCNS(C)(=O)=O)cc2)cc1 — lower, 131.3 to 131.4 °C
- COc1ccc(-n2nc(C(F)(F)F)cc2-c2ccc(OCC(N)=O)cc2)cc1 — higher, 168 to 169 °C
- C=C(C)c1cc(-c2ccc(OCCNC(N)=O)cc2)n(-c2ccc(OC)nc2)n1 — lower, 94 to 98 °C
- COc1ccc(-n2nc(C(=O)C3CC3)cc2-c2ccc(OCCO)cc2)cc1 — lower, 132 to 133 °C
- COc1ccc(-n2nc(C(C)C)cc2-c2ccc(CNC(N)=O)cc2)cn1 — lower, 139 to 144 °C
- COc1ccc(-n2nc(NC(=O)N(C)C)cc2-c2ccc(OCCO)cc2)cc1 — higher, 167.4 to 167.6 °C
- CCN(C)C(=O)c1cc(-c2ccc(CNS(C)(=O)=O)cc2)n(-c2ccc(OC)cc2)n1 — higher, 149.8 to 150.8 °C
- COc1ccc(-n2nc(OC(C)C)cc2-c2ccc(OCCNS(C)(=O)=O)cc2)cc1 — higher, 167.9 to 168 °C
- COc1ccc(-n2nc(C(F)(F)F)cc2-c2ccc(CCNC(C)=O)cc2)cc1 — lower, 79 to 80 °C
- CCOc1cc(-c2ccc(OCCO)cc2)n(-c2ccc(OC)nc2)n1 — lower, 81 to 82 °C
- COc1ccc(-n2nc(OC)cc2-c2ccc(CNC(N)=O)cc2)cc1 — higher, 206 to 260.9 °C
- COc1ccc(-n2nc(C(C)C)cc2-c2ccc(OCCNC(N)=O)cc2)cn1 — lower, 106 to 107 °C
- COc1ccc(-n2nc(OC)cc2-c2ccc(OCCO)cc2)cn1 — lower, 92.2 to 92.5 °C
- COCOc1ccc(-c2cc(S(C)(=O)=O)nn2-c2ccc(OC)cc2)cc1 — lower, 128 to 128.1 °C
- COc1ccc(-n2nc(Cl)cc2-c2ccc(OCCNS(=O)(=O)CCO)cc2)cc1 — lower, 139.1 to 139.4 °C
- COc1ccc(-n2nc(C#N)cc2-c2ccc(OCCNC(N)=O)cc2)cn1 — higher, 173 to 176 °C
- COc1ccc(-n2nc(OC)cc2-c2ccc(OCCNC(N)=O)cc2)cc1 — lower, 108 to 111 °C
- COc1ccc(-n2nc(C#N)cc2-c2ccc(OCCO)cc2)cc1 — lower, 91 to 92 °C
- COc1ccc(-n2nc(NC(=O)N(C)C)cc2-c2ccc(OCCNC(N)=O)cc2)cc1 — higher, 193 to 196 °C
- COCCOc1cc(-c2ccc(OCCNC(N)=O)cc2)n(-c2ccc(OC)cc2)n1 — lower, 131 to 132 °C
- COc1ccc(-n2nc(Cl)cc2-c2ccc(OCCNS(C)(=O)=O)cc2)cc1 — lower, 117 to 119 °C
- COc1ccc(-n2nc(OC(C)C)cc2-c2ccc(OCCNC(N)=O)cc2)cc1 — lower, 139 to 140 °C
- COc1ccc(-n2nc(S(C)(=O)=O)cc2-c2ccc(OCCN)cc2)cc1 — lower, 104 to 106 °C
- COc1ccc(-n2nc(C(F)(F)F)cc2-c2ccc(CCS(N)(=O)=O)cc2)cc1 — lower, 131 to 132 °C
- COc1ccc(-n2nc(C3CC3)cc2-c2ccc(OCCNS(C)(=O)=O)cc2)cc1 — higher, 166 to 168 °C
- COc1ccc(-n2nc(C(=O)C3CC3)cc2-c2ccc(OCCNC(N)=O)cc2)cc1 — lower, 136 to 137 °C
- COc1ccc(-n2nc(C(F)(F)F)cc2-c2ccc(CCNC(N)=O)cc2)cc1 — higher, 157 to 158 °C
- COc1ccc(-n2nc(C3CC3)cc2-c2ccc(OCCNC(N)=O)cc2)cn1 — lower, 94 to 96 °C
- CO/N=C(\C)c1cc(-c2ccc(CCO)cc2)n(-c2ccc(OC)cc2)n1 — lower, 82 to 86 °C
- COc1ccc(-n2nc(C(F)(F)F)cc2-c2ccc(CCCS(C)(=O)=O)cc2)cn1 — lower, 121 to 122 °C
- COc1ccc(-n2nc(Cl)cc2-c2ccc(OCCO)cc2)cn1 — lower, 136.5 to 138.2 °C
- CCN(C)C(=O)c1cc(-c2ccc(OCCNC(N)=O)cc2)n(-c2ccc(OC)nc2)n1 — lower, 146.3 to 146.7 °C
- COc1ccc(-n2nc(OC)cc2-c2ccc(OCCNS(C)(=O)=O)cc2)cc1 — lower, 103 to 104 °C
